Literature values in paper PMC7114187 (Antiviral Research, 2008).

System: NA^WT(WSN) with H274Y mutation
Conditions: cited from earlier work

In the case of `CCOC(=O)C1=C[C@@H](OC(CC)CC)[C@H](NC(C)=O)[C@@H](N)C1` [Oseltamivir, oseltamivir], the “fold increase in the IC50 by H274Y mutation” value is listed as 754 fold.
